# Experimental data as given in US5698411A, “Method for determining activity of enzymes in metabolically active whole cells” (priority 1995, dated 1997).
# Tests used:
# [1] = tested on: lymphocytes; test: aberrant enzyme activities in febrile children, lymphocytes (Table 7); type: cell-based, human
# [2] = tested on: granulocytes; test: aberrant enzyme activities in febrile children, granulocytes (Table 7); type: cell-based, human
# [3] = tested on: monocytes; test: aberrant enzyme activities in febrile children, monocytes (Table 7); type: cell-based, human
# [4] = tested on: granulocytes; test: enzyme activity with fluorogenic substrate, normal granulocytes (Table 3A); type: cell-based, human
# [5] = tested on: erythrocytes; test: enzyme activity with fluorogenic substrate, normal erythrocytes (Table 3B); type: cell-based, human
# [6] = tested on: lymphocytes; test: enzyme activity with fluorogenic substrate, normal lymphocytes (Table 3A); type: cell-based, human
# [7] = tested on: monocytes; test: enzyme activity with fluorogenic substrate, normal monocytes (Table 3A); type: cell-based, human
# [8] = tested on: substituted rhodamine 110 substrates; test: modulator effect on substituted rhodamine 110 substrates; type: biochemical
# Source text: Modulators are components used to […] the sensitivity of the enzyme for the leaving group. The modulators speed up or slow down the activity of an enzyme by changing the active site. […] Preferred modulators for particular enzymes are included in Table 1.
# [9] = tested on: lymphocytes; test: peptidase activity in leukemia and non-leukemia patients, lymphocytes (Table 6C); type: cell-based, human; design: unit not given here
# [10] = tested on: metabolically active whole cell; test: substrate panel in normals and HIV + patients, TB infection (Table 4); type: cell-based, human; design: unit not given here
# Description: A panel of assay compounds are assembled consisting of Ala-aminopeptidase and Lys-aminopeptidase, Dipeptidyl peptidase IV (Ala-Ala)2 rhodamine 110 and Cathepsin D to indicate possible TB infection in AIDS related cases.
# A panel Of enzymatic substrates is performed consisting of Ala-aminopeptidase and Lys-aminopeptidase, Dipeptidyl peptidase IV (Ala-Ala)2 rhodamine 110 and Cathepsin D to indicate possible TB infection in AIDS related cases.
# [11] = tested on: granulocytes; test: peptidase activity in leukemia and non-leukemia patients, granulocytes (Table 6C); type: cell-based, human; design: unit not given here
compound,measurement,setting,value
"CC(=O)Oc1cc2c(cc1Cl)C(c1ccccc1C(=O)O)c1cc(Cl)c(OC(C)=O)cc1O2 [DCFH-DA MES, reference compound]","aberrant enzyme activity, LYMPHS",[1]; P88 Enteritis,.smallcircle.
same,"aberrant enzyme activity, LYMPHS",[1]; P89 Viral Stomatitis,+ (>0.25 Increase over normal range)
same,"aberrant enzyme activity, LYMPHS",[1]; P92 Adenitis,+ (>0.25 Increase over normal range)
same,"aberrant enzyme activity, LYMPHS",[1]; P95 Viral Syndrome,+ (>0.25 Increase over normal range)
same,"aberrant enzyme activity, LYMPHS",[1]; P96 Viral Syndrome,+ (>0.25 Increase over normal range)
same,"aberrant enzyme activity, LYMPHS",[1]; P97 Pyelonephritis,.smallcircle.
same,"aberrant enzyme activity, LYMPHS",[1]; P99 Viral Syndrome,.smallcircle.
same,"aberrant enzyme activity, LYMPHS",[1]; P101 Fever -- Unknown Origin,+ (>0.25 Increase over normal range)
same,"aberrant enzyme activity, LYMPHS",[1]; P102 UTI,.smallcircle.
same,"aberrant enzyme activity, LYMPHS",[1]; P103 Viral Syndrome,+ (>0.25 Increase over normal range)
same,"aberrant enzyme activity, GRANS",[2]; P88 Enteritis,.smallcircle.
same,"aberrant enzyme activity, GRANS",[2]; P89 Viral Stomatitis,+ (>0.25 Increase over normal range)
same,"aberrant enzyme activity, GRANS",[2]; P92 Adenitis,+ (>0.25 Increase over normal range)
same,"aberrant enzyme activity, GRANS",[2]; P95 Viral Syndrome,+ (>0.25 Increase over normal range)
same,"aberrant enzyme activity, GRANS",[2]; P96 Viral Syndrome,+ (>0.25 Increase over normal range)
same,"aberrant enzyme activity, GRANS",[2]; P97 Pyelonephritis,+ (>0.25 Increase over normal range)
same,"aberrant enzyme activity, GRANS",[2]; P99 Viral Syndrome,.smallcircle.
same,"aberrant enzyme activity, GRANS",[2]; P101 Fever -- Unknown Origin,+ (>0.25 Increase over normal range)
same,"aberrant enzyme activity, GRANS",[2]; P102 UTI,.smallcircle.
same,"aberrant enzyme activity, GRANS",[2]; P103 Viral Syndrome,+ (>0.25 Increase over normal range)
same,"aberrant enzyme activity, MONOS",[3]; P88 Enteritis,.smallcircle.
same,"aberrant enzyme activity, MONOS",[3]; P89 Viral Stomatitis,+ (>0.25 Increase over normal range)
same,"aberrant enzyme activity, MONOS",[3]; P92 Adenitis,+ (>0.25 Increase over normal range)
same,"aberrant enzyme activity, MONOS",[3]; P95 Viral Syndrome,+ (>0.25 Increase over normal range)
same,"aberrant enzyme activity, MONOS",[3]; P96 Viral Syndrome,+ (>0.25 Increase over normal range)
same,"aberrant enzyme activity, MONOS",[3]; P97 Pyelonephritis,+ (>0.25 Increase over normal range)
same,"aberrant enzyme activity, MONOS",[3]; P99 Viral Syndrome,.smallcircle.
same,"aberrant enzyme activity, MONOS",[3]; P101 Fever -- Unknown Origin,+ (>0.25 Increase over normal range)
same,"aberrant enzyme activity, MONOS",[3]; P102 UTI,.smallcircle.
same,"aberrant enzyme activity, MONOS",[3]; P103 Viral Syndrome,+ (>0.25 Increase over normal range)
same,NORMAL LEUKOCYTE ENZYME ACTIVITY GRANS Mean,[4],7.49
same,NORMAL E[…] ACTIVITY MEAN,[5],0.286
same,NORMAL LEUKOCYTE ENZYME ACTIVITY LYMPHS Mean,[6],4.11
same,NORMAL LEUKOCYTE ENZYME ACTIVITY MONOS Mean,[7],12.28
O=C1OC2(c3ccc(OC4O[C@H](CO)[C@@H](O)[C@H](O)[C@H]4O)cc3Oc3cc(OC4O[C@H](CO)[C@@H](O)[C@H](O)[C@H]4O)ccc32)c2ccccc21 (stereo partly drawn) [DIGLUC (FL)],NORMAL LEUKOCYTE ENZYME ACTIVITY GRANS Mean,[4],0.45
same,NORMAL E[…] ACTIVITY MEAN,[5],0.110
same,NORMAL LEUKOCYTE ENZYME ACTIVITY LYMPHS Mean,[6],0.23
"O[C@H](CS)[C@H](O)CS [Dithiothreitol (DTT), Dithiothreitol]",modulator effect,[8],effective modulator
"CC(=O)Oc1ccc2c(c1)Oc1cc(OC(C)=O)ccc1C21OC(=O)c2ccccc21 [FDA, fluorescein diacetate, reference compound]","aberrant enzyme activity, LYMPHS",[1]; P88 Enteritis,.smallcircle.
same,"aberrant enzyme activity, LYMPHS",[1]; P97 Pyelonephritis,.smallcircle.
same,"aberrant enzyme activity, LYMPHS",[1]; P99 Viral Syndrome,.smallcircle.
same,"aberrant enzyme activity, LYMPHS",[1]; P102 UTI,.smallcircle.
same,"aberrant enzyme activity, GRANS",[2]; P88 Enteritis,.smallcircle.
same,"aberrant enzyme activity, GRANS",[2]; P99 Viral Syndrome,.smallcircle.
same,"aberrant enzyme activity, GRANS",[2]; P102 UTI,.smallcircle.
same,"aberrant enzyme activity, MONOS",[3]; P88 Enteritis,.smallcircle.
same,"aberrant enzyme activity, MONOS",[3]; P99 Viral Syndrome,.smallcircle.
same,"aberrant enzyme activity, MONOS",[3]; P102 UTI,.smallcircle.
same,NORMAL E[…] ACTIVITY MEAN,[5],0.126
same,NORMAL LEUKOCYTE ENZYME ACTIVITY LYMPHS Mean,[6],13.38
same,NORMAL LEUKOCYTE ENZYME ACTIVITY MONOS Mean,[7],66.25
"O[C@H](CS)[C@@H](O)CS [dithioerythritol (DTE), dithioerythritol]",sensitivity of the leaving group for the enzyme,"[8]; 1 mM, Ala-Gly and Leu-Gly substrates",does not change the sensitivity
same,sensitivity of the substituted rhodamine 110 substrates,"[8]; 1 mM, Pro, Gly, Gln-Ser, Val-Lys-Val-Lys, Ala-Ala, Ala-Ala-Ala-Ala substrates",decreases the sensitivity
(Gly)2 Rho 110,"aberrant enzyme activity, LYMPHS",[1]; P88 Enteritis,.smallcircle.
same,"aberrant enzyme activity, LYMPHS",[1]; P89 Viral Stomatitis,- (>0.25 Decrease over normal range)
same,"aberrant enzyme activity, LYMPHS",[1]; P92 Adenitis,.smallcircle.
same,"aberrant enzyme activity, LYMPHS",[1]; P97 Pyelonephritis,.smallcircle.
same,"aberrant enzyme activity, LYMPHS",[1]; P102 UTI,.smallcircle.
same,"aberrant enzyme activity, LYMPHS",[1]; P103 Viral Syndrome,.smallcircle.
same,"enzyme activity, Lymphs",[9]; J4 11/21/91 acute leuk.,14.02
same,"enzyme activity, Lymphs",[9]; J4 12/2/91 A L,27.32
same,"enzyme activity, Lymphs",[9]; J4 12/3/91 acute leuk.,31.51
same,"enzyme activity, Lymphs",[9]; J5 11/27/91 A M L,28.36
same,"enzyme activity, Lymphs",[9]; J19 11/27/91 C L L,11.39
same,"enzyme activity, Lymphs",[9]; J22 12/2/91 A M L,24.50
same,"enzyme activity, Lymphs",[9]; J22 12/9/91 A M L,27.14
same,"enzyme activity, Lymphs",[9]; N191 normal,43.57
same,"enzyme activity, Lymphs",[9]; N192 normal,37.47
same,"enzyme activity, Lymphs",[9]; N193 normal,39.30
same,"enzyme activity, Lymphs",[9]; N194 normal,39.76
same,"enzyme activity, Lymphs",[9]; N195 normal,48.18
same,"enzyme activity, Lymphs",[9]; N197 normal,42.96
same,"enzyme activity, Lymphs",[9]; N199 normal,30.68
same,"enzyme activity, Lymphs",[9]; N200 normal,42.28
same,"enzyme activity, Lymphs",[9]; N201 normal,45.32
same,"enzyme activity, Lymphs",[9]; N202 normal,44.55
same,"enzyme activity, Lymphs",[9]; N206 normal,55.56
same,"enzyme activity, Lymphs",[9]; P68 tachycardia,59.29
same,"enzyme activity, Lymphs",[9]; P69 pancreatic CA,67.38
same,"enzyme activity, Lymphs",[9]; P70 cirrhosis/hemobilia,54.84
same,"enzyme activity, Lymphs",[9]; P71 ac. pyelonephritis,41.93
same,"aberrant enzyme activity, GRANS",[2]; P88 Enteritis,.smallcircle.
same,"aberrant enzyme activity, GRANS",[2]; P89 Viral Stomatitis,.smallcircle.
same,"aberrant enzyme activity, GRANS",[2]; P92 Adenitis,.smallcircle.
same,"aberrant enzyme activity, GRANS",[2]; P97 Pyelonephritis,.smallcircle.
same,"aberrant enzyme activity, GRANS",[2]; P102 UTI,.smallcircle.
same,"aberrant enzyme activity, GRANS",[2]; P103 Viral Syndrome,.smallcircle.
same,"aberrant enzyme activity, MONOS",[3]; P88 Enteritis,.smallcircle.
same,"aberrant enzyme activity, MONOS",[3]; P89 Viral Stomatitis,.smallcircle.
same,"aberrant enzyme activity, MONOS",[3]; P92 Adenitis,.smallcircle.
same,"aberrant enzyme activity, MONOS",[3]; P97 Pyelonephritis,+ (>0.25 Increase over normal range)
same,"aberrant enzyme activity, MONOS",[3]; P103 Viral Syndrome,.smallcircle.
same,NORMAL LEUKOCYTE ENZYME ACTIVITY GRANS Mean,[4],29.48
same,NORMAL LEUKOCYTE ENZYME ACTIVITY LYMPHS Mean,[6],18.18
same,NORMAL LEUKOCYTE ENZYME ACTIVITY MONOS Mean,[7],61.47
same,MEAN DELTA FL,[10]; HIV + PATIENTS,62.4
same,MEAN DELTA FL,[10]; NORMALS,101.1
same,"enzyme activity, Grans",[11]; J4 11/21/91 acute leuk.,27.79
same,"enzyme activity, Grans",[11]; J4 12/2/91 A L,47.74
same,"enzyme activity, Grans",[11]; J4 12/3/91 acute leuk.,48.53
same,"enzyme activity, Grans",[11]; J5 11/27/91 A M L,56.33
same,"enzyme activity, Grans",[11]; J19 11/27/91 C L L,48.80
same,"enzyme activity, Grans",[11]; J22 12/2/91 A M L,34.02
same,"enzyme activity, Grans",[11]; J22 12/9/91 A M L,38.47
same,"enzyme activity, Grans",[11]; N191 normal,73.20
same,"enzyme activity, Grans",[11]; N192 normal,48.67
same,"enzyme activity, Grans",[11]; N193 normal,63.33
same,"enzyme activity, Grans",[11]; N194 normal,60.30
same,"enzyme activity, Grans",[11]; N195 normal,79.13
same,"enzyme activity, Grans",[11]; N197 normal,76.88
same,"enzyme activity, Grans",[11]; N199 normal,45.00
same,"enzyme activity, Grans",[11]; N200 normal,59.39
same,"enzyme activity, Grans",[11]; N201 normal,75.48
same,"enzyme activity, Grans",[11]; N202 normal,66.22
same,"enzyme activity, Grans",[11]; N206 normal,91.93
same,"enzyme activity, Grans",[11]; P68 tachycardia,100.00
same,"enzyme activity, Grans",[11]; P69 pancreatic CA,88.04
same,"enzyme activity, Grans",[11]; P70 cirrhosis/hemobilia,88.42
same,"enzyme activity, Grans",[11]; P71 ac. pyelonephritis,59.35
(Z-Thr--Pro)2 Rho 110 [Z-TP 8.7],"aberrant enzyme activity, LYMPHS",[1]; P92 Adenitis,- (>0.25 Decrease over normal range)
same,"aberrant enzyme activity, LYMPHS",[1]; P97 Pyelonephritis,.smallcircle.
same,"aberrant enzyme activity, LYMPHS",[1]; P103 Viral Syndrome,.smallcircle.
same,"aberrant enzyme activity, GRANS",[2]; P92 Adenitis,.smallcircle.
same,"aberrant enzyme activity, GRANS",[2]; P97 Pyelonephritis,.smallcircle.
same,"aberrant enzyme activity, GRANS",[2]; P103 Viral Syndrome,.smallcircle.
same,"aberrant enzyme activity, MONOS",[3]; P92 Adenitis,- (>0.25 Decrease over normal range)
same,"aberrant enzyme activity, MONOS",[3]; P97 Pyelonephritis,.smallcircle.
same,"aberrant enzyme activity, MONOS",[3]; P103 Viral Syndrome,.smallcircle.
same,NORMAL LEUKOCYTE ENZYME ACTIVITY GRANS Mean,[4],82.35
same,NORMAL E[…] ACTIVITY MEAN,[5],0.161
same,NORMAL LEUKOCYTE ENZYME ACTIVITY LYMPHS Mean,[6],35.01
same,NORMAL LEUKOCYTE ENZYME ACTIVITY MONOS Mean,[7],76.00
